From US7560468B2, “Substituted 1,4,8-triazaspiro[4,5]decan-2-one compounds” (Gruenenthal GmbH, priority 2004, dated 2009)

Key:
[1] = biological target: T1, 5-HT transporter (Rattus norvegicus, UniProt P31652); experiment: Inhibition of 5-HT uptake in synaptosomes; format: biochemical; conditions: for inhibition at 1 µM: read-out: Uptake_5-HT, rat, 1 μM, % inhibition
T1 construct: from tissue; host or cells: rat brain synaptosomes (marrow/medulla and pons), P2 fraction

[2] = biological target: human CB2 receptor (Homo sapiens, UniProt P34972); experiment: Affinity to the cannabinoid receptor CB2, displacement of [3H]-CP 55,940; conditions: for Inhibition CB2 10 μM, % inhibition: membranes of HEK 293EBNA cells with human CB2 receptor; for inhibition at 10 µM: read-out: Inhibition CB2 10 μM, % inhibition
Experimental: The radioligand used was tritium-labeled 5-(1,1-dimethylheptyl)-2-(5-hydroxypropyl)cyclohexyl)-1-alpha,2-beta,5-alpha)-phenol (^[3]H—CP 55,940 with 103.4 of Ci/mmol, 1 m Ci/mL). Determination was carried out in a test buffer comprising 50 mM of Tris-HCl, 2.5 mm of EDTA, 5 mm of MgCl2 and 1.0 mg/mL of fatty acid-free BSA. The test substances were in each case dissolved in DMSO.
The affinity of the compounds of the invention to the CB2 receptor is determined by their ability to displace ^[3]H—CP from 55,940 of CB2 receptors in membranes of HEK 293 EBNA cells. For this purpose 8 μg of membranes (20 mL of a solution of membranes in a concentration of 400 g/ml) are incubated in wells of a microtiter plate with a 0.33 nM of solution of [3]H-CP 55,949 (120 of Ci/mmol) in a total volume of test buffer of 200 μL for 90 minutes at 30° C.
Subsequently, either the test substances or WIN 55,212-2 for determination the non-specific binding are placed, dissolved in each case in dimethyl sulphoxide, in the wells so that in each case a concentration of the relevant substances of 10 μM is obtained.
Incubation is continued for a further 40 minutes at 30° C. dc. […] The filters are washed nine times with 0.5 mL of ice-cold washing buffer (50 nM of Tris-HCl, 5 mM of MgCl2, 2.5 mm of EDTA, 2% of BSA, pH 7.4), air-dried, placed in scintillation liquid, and the radioactivity is determined with the aid of a scintillation counter.
The percentage displacement of the radio-active ligand ^[3]H—CP 55,940 from its binding to the CB2 receptor is indicated as percentage inhibition of the specific binding. In order to determine Ki the IC50 inhibition concentrations are calculated based on of the percentage displacement achieved by the compounds of the general formula I to be tested at various concentrations causing a 50 percent displacement of the radioactive ligands.

[3] = tested on: batrachotoxin (BTX) binding site of the sodium channel; experiment: Affinity to the batrachotoxin (BTX) binding site of the sodium channel; conditions: rat cerebrocortex synaptosomes, [3H]-batrachotoxinin A20 α-benzoate 10 nM; test concentration not given
[4] = tested on: NA transporter; experiment: Inhibition of noradrenalin uptake in synaptosomes; format: biochemical

T1 sequence (P31652 whole entry): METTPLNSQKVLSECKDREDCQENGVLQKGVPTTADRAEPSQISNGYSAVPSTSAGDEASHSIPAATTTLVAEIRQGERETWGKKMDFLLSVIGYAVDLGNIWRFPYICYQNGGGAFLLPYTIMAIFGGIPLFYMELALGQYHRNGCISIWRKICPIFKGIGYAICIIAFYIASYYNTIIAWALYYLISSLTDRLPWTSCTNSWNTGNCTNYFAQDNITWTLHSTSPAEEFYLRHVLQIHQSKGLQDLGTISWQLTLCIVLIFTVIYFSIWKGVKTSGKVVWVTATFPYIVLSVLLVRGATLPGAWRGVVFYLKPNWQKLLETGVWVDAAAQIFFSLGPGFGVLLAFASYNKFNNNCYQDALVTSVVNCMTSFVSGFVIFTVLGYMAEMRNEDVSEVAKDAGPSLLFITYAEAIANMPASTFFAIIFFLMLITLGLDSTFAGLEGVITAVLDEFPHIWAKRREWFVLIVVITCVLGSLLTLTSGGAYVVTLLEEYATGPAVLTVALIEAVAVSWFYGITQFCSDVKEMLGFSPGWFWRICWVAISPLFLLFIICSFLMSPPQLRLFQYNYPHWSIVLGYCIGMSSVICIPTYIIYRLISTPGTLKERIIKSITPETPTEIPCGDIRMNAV
Chain of human CB2 receptor (P34972 whole entry): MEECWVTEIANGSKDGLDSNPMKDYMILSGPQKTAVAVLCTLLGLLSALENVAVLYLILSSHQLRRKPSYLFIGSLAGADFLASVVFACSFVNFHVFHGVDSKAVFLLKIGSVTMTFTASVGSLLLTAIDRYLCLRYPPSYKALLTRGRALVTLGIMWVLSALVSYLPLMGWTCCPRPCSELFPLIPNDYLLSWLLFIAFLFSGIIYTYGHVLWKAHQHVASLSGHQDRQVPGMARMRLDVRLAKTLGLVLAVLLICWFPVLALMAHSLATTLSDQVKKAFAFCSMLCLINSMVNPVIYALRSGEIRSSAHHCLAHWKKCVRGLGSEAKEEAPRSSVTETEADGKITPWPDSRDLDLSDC

Row | Compound | Uptake_5-HT, rat, 1 μM, % inhibition [1] [%] | Inhibition CB2 10 μM, % inhibition [2] [%] | BTX Inhibition [3] | Uptake (NA), rat, 10 μM, % inhibition [4] [%] | inhibition at 10 µM [2] [%] | inhibition at 1 µM [1] [%]
1 | CCOC(=O)CN1C(=O)C(Cc2ccccc2)NC12CCN(S(=O)(=O)c1ccc(OC)cc1)CC2 (centres unmarked) [Example 50, Ethyl[3-benzyl-8-(4-methoxy-benzolsulfonyl)-2-oxo-1,4,8-triazaspiro[4,5]dec-1-yl]-acetate] | 79 | 52 | 32 | 38 | – | –
2 | C=CCN1C(=O)C(CCSC)NC12CCN(S(=O)(=O)c1ccccc1S(C)(=O)=O)CC2 (centres unmarked) [Example 54, 1-Allyl-8-(2-methansulfonylbenzolsulfonyl)-3-(2-methylsulfanylethyl)-1,4,8-triazaspiro[4,5]decan-2-one] | 30 | 56 | – | 46 | – | –
3 | CSCCC1NC2(CCN(S(=O)(=O)c3ccccc3Cl)CC2)N(Cc2ccccc2[N+](=O)[O-])C1=O (centres unmarked) [Example 82, 8-(2-Chlorobenzolsulfonyl)-3-(2-methylsulfanylethyl)-1-(2-nitrobenzyl)-1,4,8-triazaspiro[4,5]decan-2-one] | 49 | 56 | 71 | – | – | –
4 | CSCCC1NC2(CCN(C(=S)Nc3cc(C(F)(F)F)ccc3Cl)CC2)N(Cc2ccccc2C#N)C1=O (centres unmarked) [Example 147, 1-(2-Cyanobenzyl)-3-(2-methylsulfanylethyl)-2-oxo-1,4,8-triazaspiro[4,5]decan-8-thiocarboxylic acid (2-chloro-5-trifluoromethylbenzol)amide] | 33 | 48 | 81 | – | – | –
5 | O=C1C(Cc2ccccc2)NC2(CCN(C(=S)NCC3CCCCC3)CC2)N1Cc1ccccc1F (centres unmarked) [Example 171, 3-Benzyl-1-(2-fluorobenzyl)-2-oxo-1,4,8-triazaspiro[4,5]decan-8-thiocarboxylic acid cyclohexylmethylamide] | – | – | 86 | 34 | 41 | –
6 | CC(C)C1NC2(CCN(C(=S)NCc3ccc(F)cc3)CC2)N(Cc2ccccc2)C1=O (centres unmarked) [Example 179, 1-Benzyl-3-isopropyl-2-oxo-1,4,8-triazaspiro[4,5]decan-8-thiocarboxylic acid 4-fluorobenzylamide] | – | – | 58 | – | 43 | 47
7 | CSCCC1NC2(CCN(C(=S)NCc3ccc(F)cc3)CC2)N(Cc2ccc(F)cc2)C1=O (centres unmarked) [Example 182, 1-(4-Fluorobenzyl)-3-(2-methylsulfanylethyl)-2-oxo-1,4,8-triazaspiro[4,5]decan-8-thiocarboxylic acid 4-fluorobenzylamide] | – | – | 69 | – | 64 | 30
8 | O=C1C(Cc2ccccc2)NC2(CCN(C(=S)Nc3c(Cl)cccc3Cl)CC2)N1Cc1ccccc1F (centres unmarked) [Example 187, 3-Benzyl-1-(2-fluorobenzyl)-2-oxo-1,4,8-triazaspiro[4,5]decan-8-thiocarboxylic acid (2,6-dichlorobenzol)amide] | 54 | 84 | 86 | 39 | – | –
9 | O=C1C(Cc2ccccc2)NC2(CCN(C(=S)Nc3cc(C(F)(F)F)ccc3Cl)CC2)N1Cc1ccccc1F (centres unmarked) [Example 188, 3-Benzyl-1-(2-fluorobenzyl)-2-oxo-1,4,8-triazaspiro[4,5]decan-8-thiocarboxylic acid (2-chloro-5-trifluoromethylbenzol)amide] | 59 | 49 | 77 | – | – | –
10 | CCOc1ccc(NC(=O)N2CCC3(CC2)NC(CCSC)C(=O)N3Cc2ccc3ccccc3c2)cc1 (centres unmarked) [Example 231, 3-(2-Methylsulfanylethyl)-1-naphthalin-2-ylmethyl-2-oxo-1,4,8-triazaspiro[4,5]decan-8-carboxylic acid (4-ethoxy-benzol)amide] | 59 | 49 | 79 | – | – | –
